For ten molecules, LC retention time results are on record in the RepoRT retention time repository (doi:10.1016/j.jchromb.2020.122105).

What all share (settings): stereoisomer not certain
Data set [1] can be described thus: RP, Waters CORTECS T3, 100 × 2.1 mm, 2.7 µm, 0.1 mL/min, estimated dead time 2.2 min; A: water + 0.1% formic acid, pH 3; B: methanol + 0.1% formic acid, pH 3; gradient (min/%B) 0/0 1/0 6/5 30/100 35/100 35.1/0 40/0.
Data set [2] is described as follows: RP, Waters ACQUITY UPLC BEH C18, 100 × 2.1 mm, 1.7 µm, 0.1 mL/min, estimated dead time 2.2 min; A: water + 0.1% formic acid, pH 3; B: methanol + 0.1% formic acid, pH 3; gradient (min/%B) 0/5 5/5 25/95 25.1/100 35/100 35.1/5 45/5.
Data set [3] can be described thus: RP, Waters CORTECS T3, 100 × 2.1 mm, 2.7 µm, 0.15 mL/min, estimated dead time 1.5 min; A: water + 0.1% formic acid, pH 3; B: methanol + 0.1% formic acid, pH 3; gradient (min/%B) 0/0 1/0 6/5 30/100 35/100 35.1/0 40/0.
A short description of data set [4]: RP, Waters CORTECS T3, 100 × 2.1 mm, 2.7 µm, 0.3 mL/min, estimated dead time 0.73 min; A: water + 0.1% formic acid, pH 3; B: methanol + 0.1% formic acid, pH 3; gradient (min/%B) 0/0 1/0 6/5 30/100 35/100 35.1/0 40/0.
The nature of data set [5]: RP, Waters CORTECS T3, 100 × 2.1 mm, 2.7 µm, 0.15 mL/min, estimated dead time 1.5 min; A: water + 0.1% formic acid, pH 3; B: methanol + 0.1% formic acid, pH 3; gradient (min/%B) 0/5 5/5 25/95 25.1/100 35/100 35.1/5 45/5.
Data set [6] is described as follows: RP, Waters ACQUITY UPLC BEH C18, 100 × 2.1 mm, 1.7 µm, 0.2 mL/min, estimated dead time 1.1 min; A: water + 0.1% formic acid, pH 3; B: methanol + 0.1% formic acid, pH 3; gradient (min/%B) 0/5 5/5 25/100 30/100 30.1/5 35/5.
Data set [7] can be described thus: RP, Waters CORTECS T3, 100 × 2.1 mm, 2.7 µm, 0.3 mL/min, estimated dead time 0.73 min; A: water + 0.1% formic acid, pH 3; B: methanol + 0.1% formic acid, pH 3; gradient (min/%B) 0/0 1/0 6/5 30/100 35/100 35.1/0 40/0. This is another data set of the same source.
The nature of data set [8]: RP, Waters ACQUITY UPLC BEH C18, 100 × 2.1 mm, 1.7 µm, 0.2 mL/min, estimated dead time 1.1 min; A: water + 0.025% formic acid + 20 mM ammonium acetate + 0.055% ammonium hydroxide, pH 7; B: methanol; gradient (min/%B) 0/5 5/5 25/100 30/100 30.1/5 35/5.
The nature of data set [9]: RP, Waters ACQUITY UPLC BEH C18, 100 × 2.1 mm, 1.7 µm, 0.1 mL/min, estimated dead time 2.2 min; A: water + 0.1% formic acid, pH 3; B: methanol + 0.1% formic acid, pH 3; gradient (min/%B) 0/5 5/5 25/100 30/100 30.1/5 35/5.
Data set [10] is described as follows: RP, Waters CORTECS T3, 100 × 2.1 mm, 2.7 µm, 0.3 mL/min, estimated dead time 0.73 min; A: water + 0.1% formic acid, pH 3; B: methanol + 0.1% formic acid, pH 3; gradient (min/%B) 0/5 5/5 25/100 30/100 30.1/5 35/5.
Data set [11] can be described thus: HILIC, Waters XBridge BEH Amide, 100 × 2.1 mm, 2.5 µm, 0.5 mL/min, estimated dead time 0.44 min; A: water + 0.1% acetic acid + 10 mM ammonium acetate, pH 4; B: 5% water + 95% acetonitrile + 0.1% acetic acid + 10 mM ammonium acetate, pH 4; gradient (min/%B) 0/95 5/95 20/57 25/57 30/95 40/95.
Data set [12] can be described thus: RP, Thermo Scientific Hypercarb, 150 × 2.1 mm, 5 µm, 0.1 mL/min, estimated dead time 3.3 min; A: water + 0.1% formic acid, pH 3; B: methanol + 0.1% formic acid, pH 3; gradient (min/%B) 0/5 5/5 20/100 35/100 35.1/5 45/5.

For the molecule `N[C@@H](Cc1cc(I)c(Oc2ccc(O)cc2)c(I)c1)C(=O)O` [3,5-DIIODO-L-THYRONINE], the LC retention time was 17.1 min in data set [1]; 20.2 min in data set [2]; 20.4 min in data set [3]; 18 min in data set [4]; 18.1 min in data set [5]; 16.9 min in [6]. Also, the LC retention time was 18 min in data set [7], 17.1 min in data set [8], 19.7 min in data set [9] and 15.5 min in [10].

For the molecule `O=C(O)c1cc(=O)c2ccccc2[nH]1` [4-HYDROXY-2-QUINOLINECARBOXYLIC ACID], the LC retention time in data set [1] was 10.7 min; in data set [11], 8.25 min; in data set [2] it was 14.3 min; in data set [3] it was 13.6 min; in [4] it was 10.7 min; in data set [5], 12.1 min. For the same molecule, the LC retention time in [6] is 10.9 min; in data set [7] it was 10.8 min; in data set [8], 8.26 min; in [9] it was 14.2 min; in [10] it was 9.17 min.

With `CC(C)(CO)C(O)C(=O)NCCC(=O)O` [D-PANTOTHENIC ACID], the LC retention time in [1] is 7.4 min; in data set [12], 21.3 min; in data set [3] it was 10.9 min; in data set [4], 7.94 min; in data set [5], 9.08 min; in data set [6], 8.01 min. Moreover, the values for the LC retention time in data set [7], in data set [9] and in data set [10] were 8.1 min, 11.5 min and 5.2 min, respectively.

Consider `CC1NC(=O)NC1CCCCCC(=O)O` (stereo not given) [DETHIOBIOTIN], for which the LC retention time in [1] is 13.9 min; in [12] it was 30 min; in [3], 16.9 min; in data set [4] it was 14.3 min; in data set [5], 15.1 min; in data set [6], 13.8 min. Also, the LC retention time in [7] is 14.3 min; in [8], 9.58 min; in data set [9], 16.9 min; in data set [10], 12.4 min.

Turning to `CC(C)=CCNc1ncnc2nc[nH]c12` [N6-(DELTA2-ISOPENTENYL)-ADENINE], the LC retention time was 13.4 min in [1]; 0.72 min in [11]; 17.3 min in data set [2]; 16.5 min in data set [3]; 13.6 min in [4]; 14.7 min in data set [5]. For the same molecule, the LC retention time in data set [6] is 13.4 min; in data set [7], 13.6 min; in data set [8], 16.8 min; in data set [9] it was 16.9 min; in [10], 11.8 min.

Take `CC(=O)N[C@H](Cc1c[nH]c2ccccc12)C(=O)O` [N-ACETYL-D-TRYPTOPHAN]: the LC retention time in data set [1] was 13.9 min; in [11], 8.11 min; in data set [3], 17 min; in data set [4], 14.2 min; in [5], 15.2 min; in data set [6], 14 min. Moreover, the LC retention time in data set [7] was 14.2 min; in data set [9] it was 17.3 min; in data set [10] it was 12.3 min.

As to `Nc1nc2nccnc2c(=O)[nH]1` [PTERIN], the LC retention time is 4.98 min in [11]; 5.95 min in [3]; 2.75 min in [4]; 3.45 min in data set [5]; 2.44 min in data set [6]; 3.11 min in [7]. Also, the values for the LC retention time in data set [9] and in data set [10] were 4.78 min and 1.73 min, respectively.

Turning to `Cc1cc2nc3c(=O)[nH]c(=O)nc-3n(CC(O)C(O)C(O)CO)c2cc1C` (stereo not given) [RIBOFLAVIN], the LC retention time in [1] is 13.1 min; in [2], 15.7 min; in data set [3], 15.8 min; in data set [4], 13.5 min; in data set [5], 14.1 min; in [6], 12.7 min. In addition, the LC retention time in [7] was 13.5 min; in [8] it was 12.7 min; in [9], 15.5 min; in [10], 11.7 min.

As to `O=c1[nH]c(=O)c2[nH]cnc2[nH]1` [XANTHINE], the LC retention time in data set [11] is 6.47 min; in data set [2], 2.66 min; in [3], 4.65 min; in data set [4] it was 2.17 min; in data set [5] it was 3.01 min; in data set [6] it was 2.14 min. For the same molecule, the LC retention time in [7] is 2.39 min; in data set [10], 1.53 min.

Turning to `O=C(O)c1cc(=O)c2cccc(O)c2[nH]1` [XANTHURENIC ACID], the LC retention time in [1] was 10.4 min; in [2] it was 13.9 min; in data set [3], 13.4 min; in data set [4] it was 10.5 min; in data set [5], 11.8 min; in data set [6], 10.4 min. Besides, the results for the LC retention time in [7], in [9] and in data set [10] were 10.5 min, 13.8 min and 8.94 min, respectively.
